Patent publication EP0673922A1, “Non-ionic iodinated dimers as X-ray contrast agents, process for their preparation and pharmaceutical compositions containing them” (CENTRO INVESTIGACION JUSTESA IMAGEN S.A., priority 1994, dated 1995)

Assays:
[1] = Viscosity of aqueous solution; format: physicochemical
[2] = Osmolality of aqueous solution; format: physicochemical
Experimental: (§1) Die Produkte der Erfindung der allgemeinen Formel I sind durch eine gute Löslichkeit in Wasser bei 20°C, eine Osmolalität in wässriger Lösung, die kleiner als die Osmolalität des Blutes (280 mOs/kg) ist, sowie durch eine niedrige allgemeine Toxizität gekennzeichnet, die als […] (LD₅₀) in Ratte bei intravenöser Gabe ausgedrückt wird.

Solubility in water = format: physicochemical
Ratte = test: General (acute) toxicity, LD50 after intravenous administration; format: in vivo; conditions: rat, intravenous administration (b7)
Experimental: as §1

SMILES | Viskosität bei 37°C und 300 mg I/ml [1] | Osmolatität bei 37°C und 300 mg I/ml [2] [mOs/kg] | Löslichkeit in Wasser bei 20°C und 300 mg I/ml (Solubility in water) [%] | LD₅₀ Ratte (Ratte) [g I/kg]
O=C(NCCO)c1c(I)c(C(=O)NCC(O)CO)c(I)c(N(CC(O)CO)C(=O)C(O)C(=O)N(CC(O)CO)c2c(I)c(C(=O)NCCO)c(I)c(C(=O)NCC(O)CO)c2I)c1I (stereo not drawn) [Beispiel 11, N,N'-Bis-(2,3-dihydroxypropyl)-N,N'-bis-{3-[N-(2,3-dihydroxypropyl)carbamoyl]-5-[N-(2-hydroxyethyl)carbamoyl]-2,4,6-triiodphenyl}hydroxymalonamid] | 7,8 mPa·s | 210 | >60 | >15
CN(C(=O)C(O)C(=O)N(C)c1c(I)c(C(N)=O)c(I)c(C(=O)NCC(O)CO)c1I)c1c(I)c(C(N)=O)c(I)c(C(=O)NCC(O)CO)c1I (stereo not drawn) [Beispiel 5, N,N'-Dimethyl-N,N'-bis-{5-carbamoyl-3-[N-(2,3-dihydroxypropyl)carbamoyl]-2,4,6-triiodphenyl}hydroxymalonamid] | – | – | <60 | –
O=C(NCCO)c1c(I)c(C(=O)NCC(O)CO)c(I)c(N(CCO)C(=O)CC(=O)N(CCO)c2c(I)c(C(=O)NCCO)c(I)c(C(=O)NCC(O)CO)c2I)c1I (stereo not drawn) [Beispiel 3, N,N'-Bis-(2-hydroxyethyl)-N,N'-bis-{3-[N-(2,3-dihydroxypropyl)-carbamoyl]-5-[N-(2-hydroxyethyl)carbamoyl]-2,4,6-triiodphenyl}-malonamid] | 7,5 mPa·s | 160 | >60 | >15
NC(=O)c1c(I)c(C(=O)NCC(O)CO)c(I)c(N(CCO)C(=O)C(O)C(=O)N(CCO)c2c(I)c(C(N)=O)c(I)c(C(=O)NCC(O)CO)c2I)c1I (stereo not drawn) [Beispiel 8, N,N'-Bis-(2-hydroxyethyl)-N,N'-bis-{5-carbamoyl-3-[N-(2,3-dihydroxypropyl)carbamoyl]-2,4,6-triiodphenyl}-hydroxymalonamid] | – | – | <60 | –
NC(=O)c1c(I)c(C(=O)NCC(O)CO)c(I)c(N(CC(O)CO)C(=O)C(O)C(=O)N(CC(O)CO)c2c(I)c(C(N)=O)c(I)c(C(=O)NCC(O)CO)c2I)c1I (stereo not drawn) [Beispiel 12, N,N'-Bis-(2,3-dihydroxypropyl)-N,N'-bis-{5-carbamoyl-3-[N-(2,3-dihydroxypropyl)carbamoyl]-2,4,6-triiodphenyl}-hydroxymalonamid] | 6,5 mPa·s | 240 | >60 | >15
CN(C(=O)C(=O)C(=O)N(C)c1c(I)c(C(N)=O)c(I)c(C(=O)NCC(O)CO)c1I)c1c(I)c(C(N)=O)c(I)c(C(=O)NCC(O)CO)c1I (stereo not drawn) [Beispiel 14, N,N'-Dimethyl-N,N'-bis-{5-carbamoyl-3-[N-(2,3-dihydroxypropyl)carbamoyl]-2,4,6-triiodphenyl}cetomalonamid] | – | – | <60 | –
O=C(NCCO)c1c(I)c(C(=O)NCC(O)CO)c(I)c(N(CCO)C(=O)C(O)C(=O)N(CCO)c2c(I)c(C(=O)NCCO)c(I)c(C(=O)NCC(O)CO)c2I)c1I (stereo not drawn) [Beispiel 10, N,N'-Bis-(2-hydroxyethyl)-N,N'-bis-{3-[N-(2,3-dihydroxypropyl)carbamoyl]-5-[N-(2-hydroxyethyl)carbamoyl]-2,4,6-triiodphenyl}hydroxymalonamid] | 7,3 mPa·s | 170 | >60 | >15
CNC(=O)c1c(I)c(C(=O)NCC(O)CO)c(I)c(N(CC(O)CO)C(=O)C(O)C(=O)N(CC(O)CO)c2c(I)c(C(=O)NC)c(I)c(C(=O)NCC(O)CO)c2I)c1I (stereo not drawn) [Beispiel 2, N,N'-Bis-(2,3-dihydroxypropyl)-N,N'-bis-{3-[N-(2,3-dihydroxypropyl)carbamoyl]-5-(N-methylcarbamoyl)-2,4,6-triiodphenyl}-hydroxymalonamid] | – | – | <60 | –
CNC(=O)c1c(I)c(C(=O)NCC(O)CO)c(I)c(N(CCO)C(=O)C(O)C(=O)N(CCO)c2c(I)c(C(=O)NC)c(I)c(C(=O)NCC(O)CO)c2I)c1I (stereo not drawn) [Beispiel 1, N,N-Bis-(2-hydroxyethyl)-N,N'-bis-(3-[N-(2,3-dihydroxypropyl)carbamoyl]-5-(N-methylcarbamoyl)-2,4,6-triiodphenyl}hydroxymalonamid] | – | – | <60 | –
CN(C(=O)C(O)C(=O)N(C)c1c(I)c(C(=O)NCC(O)CO)c(I)c(C(=O)NCC(O)CO)c1I)c1c(I)c(C(N)=O)c(I)c(C(=O)NCC(O)CO)c1I (stereo not drawn) [Beispiel 7, N,N'-Dimethyl-N-{5-carbamoyl-3-[N-(2,3-dihydroxypropyl)carbamoyl]-2,4,6-triiodphenyl}-N'-{3,5-bis-[N-(2,3-dihydroxypropyl)carbamoyl]-2,4,6-triiodphenyl}hydroxymalonamid] | 8,1 mPa·s | 170 | >60 | >15
NC(=O)c1c(I)c(C(=O)NC(CO)C(O)CO)c(I)c(N(CCO)C(=O)C(O)C(=O)N(CCO)c2c(I)c(C(N)=O)c(I)c(C(=O)NC(CO)C(O)CO)c2I)c1I (stereo not drawn) [Beispiel 9, N,N'-Bis-(2-hydroxyethyl)-N,N'-bis-{5-carbamoyl-3-[N-(1-hydroxymethyl-2,3-dihydroxy-propyl)carbamoyl]-2,4,-6-triiodphenyl}hydroxymalonamid] | – | – | <60 | –
O=C(NCCO)c1c(I)c(C(=O)NCC(O)CO)c(I)c(N(CC(O)CO)C(=O)CC(=O)N(CC(O)CO)c2c(I)c(C(=O)NCCO)c(I)c(C(=O)NCC(O)CO)c2I)c1I (stereo not drawn) [Beispiel 4, N,N'-Bis-(2,3-hydroxypropyl)-N,N'-bis-{3-[N-(2,3-dihydroxypropyl)carbamoyl]-5-[N-(2-hydroxyethyl)carbamoyl]-2,4,6-triiodphenyl}malonamid] | 6,8 mPa·s | 190 | >60 | >15
CN(C(=O)C(O)C(=O)N(C)c1c(I)c(C(N)=O)c(I)c(C(=O)NC(CO)C(O)CO)c1I)c1c(I)c(C(N)=O)c(I)c(C(=O)NC(CO)C(O)CO)c1I (stereo not drawn) [Beispiel 6, N,N'-Dimethyl-N,N'-bis-{5-carbamoyl-3-[N-(1-hydroxymethyl-2,3-dihydroxypropyl)carbamoyl]-2,4,6-triiodphenyl}-hydroxymalonamid] | – | – | <60 | –
CN(C(=O)C(=O)C(=O)N(C)c1c(I)c(C(=O)NCC(O)CO)c(I)c(C(=O)NCC(O)CO)c1I)c1c(I)c(C(=O)NCC(O)CO)c(I)c(C(=O)NCC(O)CO)c1I (stereo not drawn) [Beispiel 13, N,N'-Dimethyl-N,N'-bis-{3,5-bis[N-(2,3-dihydroxypropyl)carbamoyl]-2,4,6-triiodphenyl}cetomalonamid] | 10,9 mPa·s | 160 | >60 | >15
CC(=O)N(CC(O)CN(C(C)=O)c1c(I)c(C(=O)NCC(O)CO)c(I)c(C(=O)NCC(O)CO)c1I)c1c(I)c(C(=O)NCC(O)CO)c(I)c(C(=O)NCC(O)CO)c1I (stereo not drawn) [IODIXANOL, Iodixanol, reference compound] | 8,7 mPa·s | 200 | >60 | >15
